Results on one compound are retold here after PMC5321639, “Design and pharmacodynamics of recombinant NZ2114 histidine mutants with improved activity against methicillin-resistant Staphylococcus aureus” (AMB Express, 2017).

In brackets after ≈: the same amount, converted by molar mass. Several values for one entry are separate records, joined by “and”; a condition that tells them apart may be missing. Equal values may be shown once. Where a SMILES comes first, the peptide text is derived from it. Bridges are numbered along the chain shown (N, C = ends). A value given as a limit tells only on which side of the number the result lay.

The test system of experiment [1] is S. aureus ATCC43300. Kind of experiment: Effect of proteinases on activity (MIC). It is filed as cell-based, Staphylococcus aureus. To be noted: trypsin (pH 8.0), 1:10 w/w proteinase:peptide, 37 °C for 3 h, then MIC assay. The method, then: (§1) The peptide solutions were diluted twofold with the range of final concentrations were 0.015–32 µg/ml (0.003–7.273 µM) for purified H1, H2, H3, H6, and H8. The test strains were grown in MHB medium at 37 °C to an OD600 of 0.4 and diluted to 1 × 10^5 CFU/ml. The 10 µl peptide and 90 µl cell suspension were added into each well. All assays were performed in triplicate. The antimicrobial activity of NZ2114 and vancomycin were tested as positive controls. The plates were incubated at 37 °C for 18–24 h. MIC was defined as the lowest peptide concentration of ones at which there was no visible growth (Tian et al. [2009]).
(§2) The effect of pH, temperature, NaCl concentration and proteinase on the activity of peptides was evaluated. Peptides were diluted twofold, then adjusted to a pH range from 2.0 to 10.0 and incubated at 37 °C for 4 h. The thermal stability of purified peptides was determined after 1-h incubation of peptides at 4, 20, 40, 60, 80 and 100 °C in deionized water, respectively. Aliquots of peptides were incubated in various proteinases solutions [pepsin (pH 2.0), trypsin (pH 8.0), proteinase K (pH 7.0)] at a ratio of 1:10, w/w (proteinase: peptide) at 37 °C for 3 h. For the ion stability, peptides were incubated in 50, 100, 200, 300, 400, 500 mM sodium chloride solutions, respectively. Other methods and conditions were prepared as the MIC assay described above (Li et al. [2015]; Qu et al. [2016]).

The next experiment relates to S. pullorum CVCC1789. The experiment in a line: MIC assay. It is filed as cell-based. The following applies: MHB, 1 × 10^5 CFU/ml, 37 °C, 18–24 h, triplicate. On the procedure: as §1
The subject of a further experiment is S. typhimurium ATCC14028. Kind of experiment: MIC assay. It is filed as cell-based. The following applies: MHB, 1 × 10^5 CFU/ml, 37 °C, 18–24 h, triplicate. On the procedure:
as §1

The test system of another experiment is S. choleraesuis CVCC503. The experiment in a line: MIC assay. In kind it is cell-based. To be noted: MHB, 1 × 10^5 CFU/ml, 37 °C, 18–24 h, triplicate. On the procedure:
as §1

Experiment [2] concerns S. aureus ATCC43300. Kind of experiment: Postantibiotic effect (PAE). It is filed as cell-based, Staphylococcus aureus. To be noted: 2 h exposure at 37 °C, 1 × 10^8 CFU/ml, drug removed by 1:10^3 dilution, mean ± SD, n = 3. On the procedure: After 2 h, the drug was removed by diluting 1:10^3 into the MHB and incubated at 37 °C, 250 rpm. The sample was taken to plate counting every 1 h until the bacterial cultures become turbid. The PAE was calculated by the following formula: PAE = T − C, where T is the time needed for the count of CFU in the test culture to increase 1 log10 (10-fold) above the 0 h and C is the time needed for the count of CFU in the untreated control culture to increase 1 log10 above the 0 h (Giguère et al. [2012]).

Experiment [3] concerns S. aureus ATCC43300. Kind of experiment: Effect of NaCl concentration on activity (MIC). It is filed as cell-based, Staphylococcus aureus. The method, then:
as §1, §2

The subject of the next experiment is S. aureus ATCC6538. Kind of experiment: MIC assay. The following applies: MHB, 1 × 10^5 CFU/ml, 37 °C, 18–24 h, no visible growth, triplicate. In kind it is cell-based, Staphylococcus aureus. The method, then: as §1
The test system of a further experiment is S. aureus ATCC25923. Kind of experiment: MIC assay. In kind it is cell-based, Staphylococcus aureus. The following applies: MHB, 1 × 10^5 CFU/ml, 37 °C, 18–24 h, no visible growth, triplicate. The method, then:
as §1

What is called MIC is the lowest concentration that inhibits growth of the organism. A low value points to a more susceptible organism. On to `CC[C@H](C)[C@@H]1NC(=O)[C@H](CO)NC(=O)[C@H](CCCCN)NC(=O)[C@@H]2CSSC[C@@H](C(=O)N[C@@H](Cc3ccc(O)cc3)C(=O)O)NC(=O)[C@H](CCCCN)NC(=O)[C@@H]3CSSC[C@H](NC(=O)[C@H](CCCNC(=N)N)NC(=O)[C@H](CC(C)C)NC(=O)[C@H](CC(=O)O)NC(=O)[C@H](CC(=O)O)NC(=O)[C@H](CCC(=O)O)NC(=O)[C@H](CC(N)=O)NC(=O)[C@H](Cc4c[nH]c5ccccc45)NC(=O)[C@@H]4CCCN4C(=O)CNC(=O)[C@H](CC(N)=O)NC(=O)[C@@H](NC(=O)CNC(=O)[C@H](Cc4ccccc4)NC(=O)CN)CSSC[C@H](NC(=O)[C@H](Cc4ccc(O)cc4)NC(=O)CNC(=O)CNC(=O)[C@H](CCCCN)NC(=O)[C@H](Cc4ccc(O)cc4)NC(=O)CNC(=O)[C@H](CCCCN)NC1=O)C(=O)N[C@@H](C)C(=O)N[C@@H](CCCCN)C(=O)NCC(=O)NCC(=O)N[C@@H](Cc1ccccc1)C(=O)N[C@@H](C(C)C)C(=O)N3)C(=O)N[C@@H](CCCNC(=N)N)C(=O)N[C@@H](CC(N)=O)C(=O)N[C@@H](Cc1c[nH]cn1)C(=O)N2` [H2] (H-GFGCNGPWNEDDLRCRNHCKSIKGYKGGYCAKGGFVCKCY-OH; disulfide 4-30, 15-37, 19-39 (inferred); N-terminus and C-terminus assumed), for which the “MIC after Trypsin” value against S. aureus ATCC43300 [1] was determined as 0.454 µM (≈ 2.01 µg/mL). Further, the minimal inhibitory concentration (MIC) with S. pullorum CVCC1789 is more than 7.273 µM; in the experiment on S. typhimurium ATCC14028, more than 7.273 µM; against S. choleraesuis CVCC503, more than 7.273 µM; in the experiment with S. aureus ATCC6538 it was 0.057 µM (≈ 0.253 µg/mL); against S. aureus ATCC25923 it was 0.028 µM (≈ 0.124 µg/mL). Also, the PAE was 0.63 h and 0.63 ± 0.13 h in the experiment on S. aureus ATCC43300 [2] (1× MIC); 1.75 ± 0.04 h in the experiment on S. aureus ATCC43300 [2] (2× MIC). For the same compound, in the experiment with S. aureus ATCC43300 [3] (incubated in 50 mM sodium chloride solution), the “MIC in 50 mM NaCl” value stood at 0.114 µM (≈ 0.505 µg/mL). In the experiment on S. aureus ATCC43300 [3] (incubated in 100 mM sodium chloride solution), the “MIC in 100 mM NaCl” value came to 0.114 µM (≈ 0.505 µg/mL). In the experiment with S. aureus ATCC43300 [3] (incubated in 300 mM sodium chloride solution), the “MIC in 300 mM NaCl” value turned out to be 0.227 µM (≈ 1.01 µg/mL). In the experiment with S. aureus ATCC43300 [3] (incubated in 400 mM sodium chloride solution), the “MIC in 400 mM NaCl” value came to 0.227 µM (≈ 1.01 µg/mL). Besides, in the experiment with S. aureus ATCC43300 [3] (incubated in 500 mM sodium chloride solution), the “MIC in 500 mM NaCl” value is 0.227 µM (≈ 1.01 µg/mL).
